The source of these data is EPA's ToxValDB 9.5 (doi:10.2903/j.efsa.2010.1704).

≈ marks a conversion by molar mass, not a printed value.

One series relates to Oncorhynchus mykiss. To be noted: acute; duration: 96 hours; mortality.
In the next series the test system is Daphnia magna. To be noted: chronic/long-term; duration: 21 days; reproduction.
The next series deals with Colinus virginianus. The conditions noted are these: acute, oral, mortality.
For a further series, the system named is Coturnix japonica. The conditions noted are these: reproduction developmental.
The subject of a further series is Oryctolagus sp. The conditions noted are these: reproduction developmental; body weight.
A further series has as its system Pimephales promelas. To be noted: chronic/long-term; duration: 35 days; growth.
For the next series, the system named is Apis mellifera. The conditions noted are these: acute; duration: 48 hours; oral; unspecified; mortality.
For another series, the system named is Typhlodromus pyri. The conditions noted are these: acute; duration: 7 days; mortality.
Another series concerns Anas platyrhynchos. To be noted: oral, mortality.
In another series the test system is Canidae. To be noted: oral, Dog Other, organ weight.

A word on the NOAEL: it is the highest tested level that showed no adverse finding. As for `Clc1ccc(C2(Cn3cncn3)CC(Br)CO2)c(Cl)c1` (stereo not given) [Bromuconazole], the LC50 with Oncorhynchus mykiss was 1.7 µg/mL (≈ 4.51 µM); in the series on Colinus virginianus (diet) it was above 778 mg/kg-day; with Tagia sp. (acute, duration: 14 days, mortality) it was above 1000 mg/kg; with Anas platyrhynchos (short-term, feed) it was above 684 mg/kg-day. Also, the NOEC is 0.02 mg/L in the series on Daphnia magna; 26.5 mg/kg-day with Coturnix japonica; 37.2 mg/kg with Tagia sp. (chronic/long-term, duration: 56 days); 0.065 mg/L with Pimephales promelas. Further, the LD50 in the series on Colinus virginianus was above 2150 mg/kg-day; with Rattus norvegicus (acute, oral, F, mortality), 328 mg/kg-day; with Apis mellifera, above 100 µg/piece; with Anas platyrhynchos (acute, unspecified), above 2150 mg/kg-day. Moreover, the NOEL in the series on Oryctolagus sp. was determined as 12.5 mg/kg-day; in the series with Rattus norvegicus (chronic, histopathology: nonneoplastic), 13.8 mg/kg-day; in the series on Rattus norvegicus (reproduction developmental, body weight), 1.3 mg/kg-day. For the same compound, the no observed adverse effect level (NOAEL) in the series with Rattus norvegicus (chronic, duration: 2 years, oral, diet, histopathology: nonneoplastic) worked out at 0.88 mg/kg-day; in the series on Rattus norvegicus (developmental, development), 10 mg/kg-day; in the series with Canidae (chronic, duration: 1 years), 2.5 mg/kg-day; in the series on Canidae (subchronic, duration: 90 days), 2.5 mg/kg-day. Further, in the series with Typhlodromus pyri, the LEL is 260 g/ha.
